Source: patent publication US20200245616A1, “A Disinfectant Composition with Extended Antimicrobial Effects” (Siamons International Inc., priority 2017, published 2020)

Legend:
Type in all cases: cell-based
[1] = test system: Penicillium variable ATCC 32333; experiment: AOAC Official Method 961.02 Germicidal Spray Method, fungal conidia on glass carriers; conditions: 10 min contact
From the text: (§1) In this method, a series of glass slides (“carriers”) were inoculated with a representative test organism and the carriers were dried under ambient conditions. The dried organisms on the surface of the carrier were then sequentially treated with the composition of the present disclosure in the form of a spray product and were exposed for a pre-determined exposure time. After exposure, the carriers were sequentially transferred to a liquid subculture medium specifically selected to neutralize the composition of the present disclosure and to recover any surviving test organism. The carriers were incubated and visually examined for the presence or absence of growth. […] Required organisms for a disinfection claim include but are not limited to Staphylococcus aureus, Salmonella choleraesuis and Pseudomonas aeruginosa.
(§2) The conidiospore suspension was macerated in a tissue grinder. The suspension was filtered through sterile cotton to remove the hyphae and hyphal fragments.
(§3) Vortex-mixed the inoculum periodically during inoculation of the carriers. • Immediately spread the inoculum uniformly over the majority of the carrier surface using a sterile loop. […] High volume screening studies were conducted in some cases where only 4 organism-inoculated carriers were treated at specified concentrations of CTAB. Once all of the carriers had been inoculated, the carriers were placed in an incubator at 37° C. for 40 minutes until completely dry.
(§4) • After drying, each carrier was sprayed with the respective disinfection formulae 10 times in 10 seconds at a distance of 30 cm. • Timed the treatment interval. Ten (10) minutes after each carrier had been exposed to the disinfectant, the excess liquid was removed and the carriers were transferred in a sequentially timed fashion into the culture tubes containing 20 ml neutralization broth (Letheen Broth with 0.07% Lecithin /0.5% Tween 80) to neutralize the disinfectant. • After the carriers were deposited in the respective culture tubes, the tubes were recapped and the cultures were thoroughly resuspended. • Incubated all neutralization tubes at 28 ±1° C. for 14 days. • After 14 days, the cultures within the tubes were examined for growth. The percentage of the treated carriers showing growth was recorded.

[2] = test system: Trichophyton mentagrophytes ATCC 9533; experiment: as above; conditions: 10 min contact
From the text: as §1, §2, §3, §4

[3] = test system: Aspergillus niger ATCC 6275; experiment: as above; conditions: 10 min contact
From the text: as §1, §2, §3, §4

[4] = test system: Pseudomonas aeruginosa ATCC 15442; experiment: AOAC Official Method 961.02 Germicidal Spray Method, bacteria on glass carriers; conditions: 10 min contact
From the text: as §1
(§5) Method Adapted to the Preparation of Bacteria Cultures from −80° C. Freshly Recovered Stock. […] Added 10 μL of the thawed stock to a tube containing 10 mL synthetic broth and then vortexed to mix. Discarded the rest of cryovial stock. • Incubated the tube at 36 ±1° C. for 24 hours (h). Briefly vortexed the 24 h culture prior to transfer. For this final subculture step, inoculated two 20×150 mm tubes containing 10 mL synthetic broth with […] of the 24 h synthetic broth culture. • Incubated 48 h at 36±1° C. Using a Vortex-style mixer, mixed synthetic broth test cultures 3-4 seconds and let stand 10 minutes at room temperature before continuing. Removed the upper portion of each culture, leaving behind any debris or clumps, and transferred to a sterile tube. Titrated the culture by plating on synthetic agar plates, and diluted to 5×10^8 Colony Forming Units (CFU) per mL.
(§6) High volume screening studies were conducted in some cases where only 4 organism-inoculated carriers were treated at specified concentrations of CTAB. Vortex-mixed the inoculum periodically during inoculation of the carriers. • Immediately spread the inoculum uniformly over the majority of the carrier surface using a sterile loop. […] Covered dish immediately and repeated operation until 64 carriers had been prepared for the test. Once all of the carriers had been inoculated, placed in incubator at 37° C. for 40 minutes until dry.
(§7) • After the test organisms were dried on the surface of the carrier, each carrier was sprayed with the respective disinfection formulae 10 times in 10 seconds at a distance of 30 cm. • Treatment interval was timed. Ten (10) minutes after each carrier had been sprayed by the disinfectant, the excess liquid was removed and the carriers were transferred in a sequentially timed fashion into the culture tubes containing 20 ml neutralizer (Letheen Broth with 0.07% Lecithin/0.5% Tween 80/0.1% Sodium Thiosulfate) to neutralize the disinfectant. […] The percentage of the treated carriers showing growth after 48 hours was recorded.

[5] = test system: select bacteria and fungal organisms; experiment: Germicidal spray disinfection, summary over the tested organisms; conditions: 0.01% QAH in CMC; 10-minute contact time
Description: All experiments were conducted according to the protocol outlined in AOAC Official Method 961.02 (Germicidal Spray Method), which is a carrier-based method used to evaluate disinfection efficacy of aerosol/pump-based spray products and liquid products for registration with regulatory agencies such as the U.S. EPA and Health Canada.
It was expected that if the CTAB was replaced by QAH's of similar structure that the disinfection of selected bacteria and fungal organisms would be similarly achieved. […] In the case of bacteria testing, the experimental procedure was as outlined in Example 1 for disinfection of bacterial cultures. In the case of fungal organisms, the experimental procedure was as outlined in Example 1 for the preparation of fungal cultures.

[6] = test system: Staphylococcus aureus ATCC 6538; experiment: AOAC Official Method 961.02 Germicidal Spray Method, bacteria on glass carriers; conditions: for Staphylococcus aureus Growth Rate: 10 min contact; for killing Staphylococcus aureus: 1.0% QAH
From the text: as §1, §5, §6, §7

Compound | Penicillium variable Growth Rate ([1]; CMC + QAH, QAH 0.010%) | Penicillium variable Growth Rate ([1]; CMC + QAH, QAH 0.100%) | Penicillium variable Growth Rate ([1]; CMC + QAH, QAH 1.000%) | Penicillium variable Growth Rate ([1]; Water + QAH, QAH 0.010%) | Penicillium variable Growth Rate ([1]; Water + QAH, QAH 0.100%) | Penicillium variable Growth Rate ([1]; Water + QAH, QAH 1.000%) | Trichophyton mentagrophytes Growth Rate ([2]; CMC + QAH, QAH 0.010%) | Trichophyton mentagrophytes Growth Rate ([2]; CMC + QAH, QAH 0.100%) | Trichophyton mentagrophytes Growth Rate ([2]; CMC + QAH, QAH 1.000%) | Trichophyton mentagrophytes Growth Rate ([2]; Water + QAH, QAH 0.010%) | Trichophyton mentagrophytes Growth Rate ([2]; Water + QAH, QAH 0.100%) | Trichophyton mentagrophytes Growth Rate ([2]; Water + QAH, QAH 1.000%) | Pseudomonas aeruginosa Growth Rate ([4]; CMC + QAH, QAH 0.010%) | Pseudomonas aeruginosa Growth Rate ([4]; CMC + QAH, QAH 0.100%) | Staphylococcus aureus Growth Rate ([6]; CMC + QAH, QAH 0.010%) | Staphylococcus aureus Growth Rate ([6]; CMC + QAH, QAH 0.100%) | Staphylococcus aureus Growth Rate ([6]; CMC + QAH, QAH 1.000%) | Staphylococcus aureus Growth Rate ([6]; Water + QAH, QAH 0.010%) | Staphylococcus aureus Growth Rate ([6]; Water + QAH, QAH 0.100%) | Staphylococcus aureus Growth Rate ([6]; Water + QAH, QAH 1.000%) | further results
Alkyldimethylbenzylammonium chloride [ADBAC] | 0% | 0% | 0% | 0% | 0% | 0% | 0% | 0% | 0% | 0% | 0% | 0% | 0% | 0% | – | – | – | – | – | – | Aspergillus niger Growth Rate ([3]; CMC + QAH, QAH 0.010%): 100%; Aspergillus niger Growth Rate ([3]; CMC + QAH, QAH 0.100%): 0%; Aspergillus niger Growth Rate ([3]; CMC + QAH, QAH 1.000%): 0%; Aspergillus niger Growth Rate ([3]; Water + QAH, QAH 0.010%): 100%; Aspergillus niger Growth Rate ([3]; Water + QAH, QAH 0.100%): 100%; Aspergillus niger Growth Rate ([3]; Water + QAH, QAH 1.000%): 0%; Pseudomonas aeruginosa Growth Rate ([4]; CMC + QAH, QAH 1.000%): 0%; Pseudomonas aeruginosa Growth Rate ([4]; Water + QAH, QAH 0.010%): 0%; Pseudomonas aeruginosa Growth Rate ([4]; Water + QAH, QAH 0.100%): 0%; Pseudomonas aeruginosa Growth Rate ([4]; Water + QAH, QAH 1.000%): 0%; effectiveness against the target organisms [5]: remarkable effectiveness
CCCCCCCCCCCCCCCCCC[N+](C)(C)C.[Cl-] [TMSAC, Trimethylstearylammonium chloride] | 0% | 0% | 0% | 0% | 0% | 0% | 0% | 0% | 0% | 0% | 0% | 0% | 0% | 0% | 0% | 0% | 0% | 100% | 100% | 50% | Pseudomonas aeruginosa Growth Rate ([4]; CMC + QAH, QAH 1.000%): 0%; Pseudomonas aeruginosa Growth Rate ([4]; Water + QAH, QAH 0.010%): 100%; Pseudomonas aeruginosa Growth Rate ([4]; Water + QAH, QAH 0.100%): 50%; Pseudomonas aeruginosa Growth Rate ([4]; Water + QAH, QAH 1.000%): 0%; effectiveness against the target organisms [5]: remarkable effectiveness
CCCC[N+](CCCC)(CCCC)Cc1ccccc1.[Cl-] [BTBAC, Benzyltri-n-butylammonium chloride] | – | – | – | – | – | – | – | – | – | – | – | – | – | – | 100% | 100% | 100% | 100% | 100% | 100% | killing Staphylococcus aureus [6]: incapable of killing
CC(C)(C)CC(C)(C)c1ccc(OCCOCC[N+](C)(C)Cc2ccccc2)cc1 [BZT, Benzethonium chloride] | 0% | 0% | 0% | 0% | 0% | 0% | 0% | 0% | 0% | 0% | 0% | 0% | 0% | 0% | 0% | 0% | 100% | 100% | 25% | 0% | Aspergillus niger Growth Rate ([3]; CMC + QAH, QAH 0.010%): 50%; Aspergillus niger Growth Rate ([3]; CMC + QAH, QAH 0.100%): 0%; Aspergillus niger Growth Rate ([3]; CMC + QAH, QAH 1.000%): 0%; Pseudomonas aeruginosa Growth Rate ([4]; CMC + QAH, QAH 1.000%): 0%; Pseudomonas aeruginosa Growth Rate ([4]; Water + QAH, QAH 0.010%): 100%; Pseudomonas aeruginosa Growth Rate ([4]; Water + QAH, QAH 0.100%): 100%; Pseudomonas aeruginosa Growth Rate ([4]; Water + QAH, QAH 1.000%): 100%; effectiveness against the target organisms [5]: remarkable effectiveness
CCCCCCCCCCCCCCCC[N+](C)(C)Cc1ccccc1.[Cl-] [BDAC, Benzyl-dimethylhexadecylammonium chloride] | 0% | 0% | 0% | 0% | 0% | 0% | 0% | 0% | 0% | 0% | 0% | 0% | 0% | 0% | 0% | 0% | 0% | 100% | 0% | 0% | Aspergillus niger Growth Rate ([3]; CMC + QAH, QAH 0.010%): 100%; Aspergillus niger Growth Rate ([3]; CMC + QAH, QAH 0.100%): 25%; Aspergillus niger Growth Rate ([3]; CMC + QAH, QAH 1.000%): 0%; Aspergillus niger Growth Rate ([3]; Water + QAH, QAH 0.010%): 100%; Aspergillus niger Growth Rate ([3]; Water + QAH, QAH 0.100%): 75%; Aspergillus niger Growth Rate ([3]; Water + QAH, QAH 1.000%): 0%; Pseudomonas aeruginosa Growth Rate ([4]; CMC + QAH, QAH 1.000%): 0%; Pseudomonas aeruginosa Growth Rate ([4]; Water + QAH, QAH 0.010%): 100%; Pseudomonas aeruginosa Growth Rate ([4]; Water + QAH, QAH 0.100%): 25%; Pseudomonas aeruginosa Growth Rate ([4]; Water + QAH, QAH 1.000%): 25%; effectiveness against the target organisms [5]: remarkable effectiveness
CC[N+](CC)(CC)Cc1ccccc1.[Cl-] [BTEAC, Benzyltriethylammonium chloride] | – | – | – | – | – | – | – | – | – | – | – | – | – | – | 100% | 100% | 75% | 100% | 100% | 100% | killing Staphylococcus aureus [6]: incapable of killing
